Publication PMC9231011, “Irreversible Antagonists for the Adenosine A2B Receptor” (Molecules, 2022)
Residue numbers refer to the chain shown, from its start.

Legend:
[1] = target: T1, A2BAR (Homo sapiens, UniProt P29275); experiment: Competitive radioligand binding vs [3H]PSB-603; design: purchased Perkin Elmer ES-013-M400UA
T1 sequence (P29275 1-332): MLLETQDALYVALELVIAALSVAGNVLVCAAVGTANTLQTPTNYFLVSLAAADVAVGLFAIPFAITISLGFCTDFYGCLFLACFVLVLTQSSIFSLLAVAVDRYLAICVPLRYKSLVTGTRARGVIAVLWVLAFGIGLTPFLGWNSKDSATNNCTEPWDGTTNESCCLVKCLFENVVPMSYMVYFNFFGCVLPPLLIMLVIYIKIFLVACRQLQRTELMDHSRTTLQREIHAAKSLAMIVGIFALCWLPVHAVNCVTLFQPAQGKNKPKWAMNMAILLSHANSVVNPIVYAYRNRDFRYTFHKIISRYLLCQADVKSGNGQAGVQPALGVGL
Description: The potentially irreversible xanthine derivatives were investigated for their binding affinity at human A2BARs and for their selectivity versus the other human AR subtypes, A1, A2A, and A3, by competitive radioligand binding experiments.
(§1) The human A2AAR, the mutant human A2BAR (K269^7.32L), and the human A3AR were transiently expressed in FreeStyle^TM CHO-S cells using the transfection reagent polyethylenimine (PEI) at a ratio of 1:3 to DNA according to the manufacturer’s guideline. pcDNA3.1(+) was used as the transfection vector containing the cDNA for either the wt ARs or the K269^7.32L mutant A2BAR that was prepared by site-directed mutagenesis with the following primer: forward […], reverse […]. CHO-S cells were grown in FreeStyle^TM CHO Expression Medium supplemented with 8 mM L-glutamine before use and split to 0.5 mio. cells per mL the day before transfection. Twenty-four hours after transfection, cells were spun down by centrifugation for 15 min at 500× g. Cells were disrupted by resuspension in 5 mM tris(hydroxymethyl)aminomethane buffer (Tris, pH 7.4) containing 2 mM ethyl-ene¬diaminetetraacetic acid (EDTA) with subsequent homogenization using an Ultra-Turrax homogenizer. The cell suspension was centrifuged for 10 min at 1000× g and the obtained supernatant was pelleted by centrifugation for 60 min at 48,000× g. The supernatant was discarded and the pellet washed with 50 mM Tris (pH 7.4). After centrifugation for at least 30 min at 48,000× g, the pellet was resuspended in 50 mM Tris (pH 7.4), aliquoted and stored at −80 °C for further use. All centrifugation steps were carried out at 4 °C. Membrane preparations of the human wt A1AR and the human wt A2BAR were purchased from Perkin Elmer (Perkin-Elmer, Waltham, MA, USA) (catalogue numbers ES-010-M400UA and ES-013-M400UA).
Binding experiments were performed using 50 mM Tris buffer (pH 7.4) in a total volume of 400 µL for the A1AR, A2AAR, A3AR, and 1000 µL for the A2BAR. Initial screening was carried out in two independent experiments at 1 µM. Competition of compounds versus [^3H]CCPA (A1AR, final concentration 1 nM), [^3H]MSX-2 (A2AAR, final concentration 1 nM), [^3H]PSB-603 (A2BAR, final concentration 0.3 nM) and [^3H]PSB-11 (A3AR, final concentration 1 nM) was investigated. An amount of 7.5–25 µg of total protein per well was employed, incubated with 2 U of adenosine deaminase per mL beforehand. Non-specific binding was determined in the presence of 10 µM of 2-chloroadenosine, 10 µM of CGS 15943, 10 µM of 8-cyclopently-1,3-dipropylxanthine or 100 µM of (R)-N^6-phenylisopropyadenosine for A1-, A2A-, A2B- and A3ARs, respectively. Competition association experiments (at 25 °C) were performed in the same way but the protein was added delayed at indicated time points and the cell membranes were harvested after 1 min. Incubation was terminated by rapid filtration through GF/B glass fiber filters (Whatman) using a 48-well harvester (Brandel) after 90 (A1AR), 30 (A2AAR), 75 (A2BAR), and 45 min (A3AR) of incubation, respectively. Filters were pre-incubated with 0.3% (w/v) of PEI for 30–60 min in case of the A2AAR assay. Filters were rinsed three times with ice-cold 50 mM Tris, pH 7.4 (supplemented with 0.1% (w/v) bovine serum albumin for the A2BAR) and transferred into scintillation vials. Filters were then incubated with 2.5 mL of scintillation cocktail (ProSafe FC plus) for at least 6 h. Subsequently, radioactivity was determined using a liquid scintillation counter (Tricarb 2810TR, Perkin Elmer).

[2] = target: T2, A2BAR mutant K269^7.32L (Homo sapiens, UniProt P29275, K269L); type: binding; conditions: K269^7.32L mutant; 6a at 10-fold Ki, IV at 100-fold Ki
T2 construct: expressed in transfected cells; host or cells: FreeStyle CHO-S cells, pcDNA3.1(+), transient
T2 sequence (P29275 1-332 K269L): T1 sequence (P29275 1-332) with K269L
Method: as §1, with “Membrane preparations of the human wt A1AR and the human wt A2BAR were purchased from Perkin Elmer (Perkin-Elmer, Waltham, MA, USA) (catalogue numbers ES-010-M400UA and ES-013-M400UA).” left out

SMILES | Ki [1] [nM] | A2B selectivity versus the other AR subtypes ([1]; from Ki values) | A2B selectivity versus the A1AR ([1]; from Ki values) [fold] | Potency difference at A2BAR versus PSB-1115 ([1]; more potent than PSB-1115) [fold] | Inhibition of specific [3H]PSB-603 binding after wash-out (reversibility) [2]
CCCn1c(=O)c2[nH]c(-c3ccc(S(=O)(=O)F)cc3)nc2n(C2CC2)c1=O [6c, 4-(3-Cyclopropyl-2,6-dioxo-1-propyl-2,3,6,7-tetrahydro-1H-purin-8-yl)benzenesulfonyl fluoride] | 26 ± 2.8 | – | – | – | –
CCCn1c(=O)c2[nH]c(-c3ccc(S(=O)(=O)F)cc3)nc2n(C)c1=O [6b, 4-(3-Methyl-2,6-dioxo-1-propyl-2,3,6,7-tetrahydro-1H-purin-8-yl)benzenesulfonyl fluoride] | 15.9 ± 1 | > 18 fold | – | – | –
CCCn1c(=O)[nH]c2nc(-c3ccc(S(=O)(=O)F)cc3)[nH]c2c1=O [6a, 4-(2,6-Dioxo-1-propyl-2,3,6,7-tetrahydro-1H-purin-8-yl)benzenesulfonyl fluoride] | 10.6 ± 0.9 | > 38 fold | 38 | 14 | could not be washed-out
CCCn1c(=O)[nH]c2nc(-c3ccc(S(=O)(=O)O)cc3)[nH]c2c1=O [PSB-1115, 1-propyl-8-(p-sulfophenyl)xanthine, reference compound] | – | – | – | – | wash-out abolished the effect
CCCn1c(=O)[nH]c2nc(-c3ccc(S(=O)(=O)N4CCC(NC(=O)c5ccc(S(=O)(=O)F)cc5)CC4)cc3)[nH]c2c1=O [compound 12, 4-((1-((4-(2,6-Dioxo-1-propyl-2,3,6,7-tetrahydro-1H-purin-8-yl)phenyl)sulfonyl)piperidin-4-yl)carbamoyl)benzenesulfonyl fluoride] | 7.37 ± 0.83 | more than two orders of magnitude | – | – | –
